Test results reported in publication PMC6349357, “Computational and experimental analysis of bioactive peptide linear motifs in the integrin adhesome” (PLoS ONE, 2019).
Marks after values point to notes of the source that are not given here.

Legend:
Assay type in all cases: cell-based, human (healthy volunteers)
TRAP-activated platelets = assay: Inhibition of TRAP-induced platelet aggregation after pre-incubation with peptide; conditions: for Aggregation after TRAP, peptide alone 1x (A 1x / B 1x) / Aggregation after TRAP, peptide alone 2x (A 2x / B 2x): TRAP 2 μM after 6 minutes pre-incubation, mean n = 3; for Aggregation after TRAP, peptide alone 1x (A 1x / B 1x): 4 μM pal-peptides, 10 μM tat-peptides; for Aggregation after TRAP, peptide alone 2x (A 2x / B 2x): double concentration of 4 μM (pal) / 10 μM (tat); for Aggregation after TRAP activation, donor h: replicate donor h; for Aggregation after TRAP activation, donor h / Aggregation after TRAP activation, donor i / Aggregation after TRAP activation, donor j: pal 20 μM, tat 50 μM; for Aggregation after TRAP activation, donor i: replicate donor i; for Aggregation after TRAP activation, donor j: replicate donor j
Experimental: (§1) Blood was drawn from healthy volunteers into a syringe containing a final volume of 15% Acid Citrate Dextrose (ACD). The blood/ACD mixture was then aliquoted into 15 ml Cellstar tubes, at volumes of 5ml per tube, and centrifuged at 150 rcf for 10 minutes to obtain platelet rich plasma (PRP). PRP was then transferred to a 50ml tube using a pipette. The pH was then adjusted to 6.5. Prostaglandin (PGE1) was then added with a final concentration of 1μM. The PRP was then centrifuged at 750 rcf. After centrifugation the platelet poor plasma (PPP) was discarded and the pellet was resuspended in buffer A (6 mM dextrose, 130 mM NaCl, 9 mM NaHCO3, 10 mM sodium citrate, 10 mM Tris base, 3 mM KCl, 0.81 mM KH2PO4 and 0.9 mM MgCl26H2O, pH 7.4). A platelet concentration of 3x10^5/μl or 1x10^6/μl was obtained by dilution depending on the experiment in which they were used. Platelets were left to rest for 45 minutes and supplemented with 1.8mM calcium chloride prior to use.
(§2) A platelet concentration of 3x10^5 /μl was used when performing standard aggregations and a concentration of 1x10^6 /μl was used for sample preparation for western blot analysis. The extent of platelet aggregation was measured by quantifying the optical density of the samples using the Bio-Data PAP-8 aggregometer (platelet aggregation profiler, Horsham, PA, USA). A temperature of 37°C was maintained and samples were stirred using magnets spinning at 1100 rpm. 200 μl of washed platelets was added to each aggregation tube. Different volumes of buffer, peptide and TRAP were added to achieve the desired concentrations. Peptide/buffer was added to each well after two minutes. TRAP, with a final concentration depending on the experiment, was added 6 minutes later and data was collected for an additional 7 minutes.

[1] = test system: tyrosine phosphorylation in platelets; assay: Phosphotyrosine western blot (4G10) of platelets treated with peptide; parameters: key to Phospho: R: in resting platelets; A: after TRAP activation; conditions: phosphorylation changes associated with peptide treatment; pal 20 μM, tat 50 μM, TRAP 4 μM
Experimental: as §2
After the aggregation step, tubes were immediately placed on ice. 27 μl of lysis buffer was then added and the tube was vortexed vigorously. Lysates were left on ice for one hour and vortexed frequently. Proteins were then centrifuged at 14,000 rcf for 10 minutes to remove debris. Samples were then mixed with 2x sample buffer. 50 μl each sample was added to 50 μl of sample buffer. The protein was then denatured by heating to 95°C for 5 minutes. 10 μl of lysate was kept for protein quantification. All samples and lysates were frozen at -80°C.
The Bradford assay was then performed on the lysates to determine protein concentration. Protein concentrations were measured using the Bio-Rad DC Protein Assay. A calibration was created using samples containing a known concentration of bovine serum albumin. These were prepared in advance by sequential dilutions with final concentrations of 1.5mg/ml, 1mg/ml, 0.8mg/ml, 0.6mg/ml, 0.4mg/ml, 0.2mg/ml, 0mg/ml. Samples were then dispensed into a 96 well plate and the Bio-Rad DC reagents were added as described in the protocol. Samples were left to rest for 15 minutes and were then read using 690 0.15 mode on the Wallac plate reader. A standard curve was calculated from the standard samples of known concentration and the y = ax+b equation was used to determine the concentration of the other samples.
Sodium Dodecyl Sulfate Polyacrylamide Gel Electrophoresis (SDS-PAGE) was performed to separate proteins by molecular weight. Polyacrylamide gels were prepared (see Reagents section). Samples or molecular markers were loaded in volumes to give 20 μg of protein. The gels were then run for approximately 80 minutes or until the samples reached the end of the gel. The proteins were then transferred to polyvinylidene difluoride (PVDF) membranes using a Bio-Rad Wet Blot Transfer Cell apparatus. During the transfer the membranes were submerged in 1x transfer buffer (10% 10x transfer buffer, 70% deionised water and 20% methanol). Transfer was performed either overnight at 40 volts at 4°C, or at 100 volts for 1 hour cooled with an ice block. After the transfer the membranes were blocked for 1 hour using 3% bovine albumin serum (BSA) dissolved in TBS-T. Membranes were incubated with 4G10 antibody with a 1:1000 dilution. Unbound primary antibody was washed off with TBS-T three times for 5 minutes each. Membranes were then incubated with anti-mouse IgG secondary antibody (Millipore) with a dilution of 1:30,000. Membranes were submerged in chemiluminescence ECL solution (Thermo Scientific). They were then measured using the western blot developer UVP. One image was taken every 80 seconds for 40 minutes. Numeric data was extracted from selected blots using ImageJ.

resting platelets = assay: Platelet aggregation induced by peptide in resting washed platelets (activation); conditions: for Activation: platelet aggregation in resting platelets after 6 minutes incubation with peptide, pal-peptides 20 μM, tat-peptides 50 μM, optical density, aggregometer, mean, n>=3; for Aggregation before TRAP activation, donor h: replicate donor h; for Aggregation before TRAP activation, donor h / Aggregation before TRAP activation, donor i / Aggregation before TRAP activation, donor j: pal 20 μM, tat 50 μM; for Aggregation before TRAP activation, donor i: replicate donor i; for Aggregation before TRAP activation, donor j: replicate donor j; for Activation, 5μM / Activation, 20μM: S3 Table, n=3; for Activation, 5μM: peptide 5 μM; for Activation, 20μM: peptide 20 μM
Experimental: as §1, §2

[2] = platelet aggregation induced by 4 μM TRAP in platelets pre-incubated with peptide (low value = inhibition), pal-peptides 20 μM, tat-peptides 50 μM, mean, n>=3
[3] = S3 Table, peptide 5 μM, aggregation after TRAP, n=3
[4] = S3 Table, peptide 20 μM, aggregation after TRAP, n=3

| Substance | Aggregation after TRAP, peptide alone 1x (A 1x / B 1x) (TRAP-activated platelets) | Aggregation after TRAP, peptide alone 2x (A 2x / B 2x) (TRAP-activated platelets) | Platelet aggregation remaining after TRAP (low = inhibition) (TRAP-activated platelets; [2]) | Aggregation after TRAP activation, donor h (TRAP-activated platelets; TRAP 4 μM) | Aggregation after TRAP activation, donor i (TRAP-activated platelets; TRAP 4 μM) | Aggregation after TRAP activation, donor j (TRAP-activated platelets; TRAP 4 μM) | Activation (resting platelets; unit assumed) [%] | Aggregation before TRAP activation, donor h (resting platelets) | Aggregation before TRAP activation, donor i (resting platelets) | Aggregation before TRAP activation, donor j (resting platelets) | Activation, 5μM (resting platelets; unit assumed) [%] | Activation, 20μM (resting platelets; unit assumed) [%] | Platelet aggregation remaining after TRAP (low = inhibition) (TRAP-activated platelets; [3]) | Platelet aggregation remaining after TRAP (low = inhibition) (TRAP-activated platelets; [4]) | other results |
| --- | --- | --- | --- | --- | --- | --- | --- | --- | --- | --- | --- | --- | --- | --- | --- |
| TLELDRLMASLSDFRVQNHLP-tat-(NH2) [TGFB1I1_LD-tat, TGFB1I1 LD motif peptide with C-terminal tat] | 67.33 | 65.67 | 66 | 74 | 59 | 67 | 3 | 3 | 4 | 4 |  |  |  |  | Phospho [1]: R |
| pal-RMKKKDEGSYD-(NH2) [pal-SDC4_JM, N-terminally palmitylated syndecan-4 juxtamembrane peptide] | 66.33 | 64.33 |  | 4 | 3 | 5 | 0 | 1 | 0 | 2 | 2 | 1 |  |  | Aggregation (inhibition effects of syndecan-derived peptides) (TRAP-activated platelets; S2 Table A, peptide 20 μM, TRAP 4 μM, mean, n=6): 45; Summary of effects of SDC4-derived palmitylated peptides and scrambled controls, 20μM (TRAP-activated platelets; S2 Table B / S2 Fig, 20 μM, activation of resting platelets and inhibition of aggregation induced by 4 μM TRAP, in words): Inhibitor; Platelet aggregation remaining after TRAP (low = inhibition) (TRAP-activated platelets; S3 Table, peptide 5 μM, aggregation after TRAP, n=3, listed as A7p SDC4-JM): 75; Platelet aggregation remaining after TRAP (low = inhibition) (TRAP-activated platelets; S3 Table, peptide 5 μM, aggregation after TRAP, n=3, listed as Juxtamembrane (A)): 64; Platelet aggregation remaining after TRAP (low = inhibition) (TRAP-activated platelets; S3 Table, peptide 20 μM, aggregation after TRAP, n=3, listed as A7p SDC4-JM): 73; Platelet aggregation remaining after TRAP (low = inhibition) (TRAP-activated platelets; S3 Table, peptide 20 μM, aggregation after TRAP, n=3, listed as Juxtamembrane (A)): 45; Platelet aggregation after TRAP activation (TRAP-activated platelets; [2]): 4 ^*; Inhibition, donor 14_06_13 (TRAP-activated platelets; replicate 14_06_13, peptide 20 μM, TRAP 4 μM): 72; Inhibition, donor 18_06_13 (TRAP-activated platelets; replicate 18_06_13, peptide 20 μM, TRAP 4 μM): 56; Inhibition, donor 20_06_13 (TRAP-activated platelets; replicate 20_06_13, peptide 20 μM, TRAP 4 μM): 74; Inhibition, donor 20_08_13 (TRAP-activated platelets; replicate 20_08_13, peptide 20 μM, TRAP 4 μM): 7; Platelet aggregation remaining after TRAP (low = inhibition) (TRAP-activated platelets; replicate 22_08_13_DONOR1, peptide 20 μM, TRAP 4 μM): 3; Platelet aggregation remaining after TRAP (low = inhibition) (TRAP-activated platelets; replicate 22_08_13_DONOR2, peptide 20 μM, TRAP 4 μM): 58; Activation, donor 14 06 13 (resting platelets; replicate 14_06_13, SDC4 peptides and controls, 20 μM, unit assumed): 1%; Activation, donor 18_06_13 (resting platelets; replicate 18_06_13, SDC4 peptides and controls, 20 μM, in % (unit assumed)): 1; Activation, donor 20_06_13 (resting platelets; replicate 20_06_13, SDC4 peptides and controls, 20 μM, in % (unit assumed)): 2; Activation, donor 20 08 13 (resting platelets; replicate 20_08_13, SDC4 peptides and controls, 20 μM, unit assumed): 1%; Activation, donor 22_08_13_DONOR1 (resting platelets; replicate 22_08_13_DONOR1, SDC4 peptides and controls, 20 μM): 0; Activation, donor 22_08_13_DONOR2 (resting platelets; replicate 22_08_13_DONOR2, SDC4 peptides and controls, 20 μM): 1 |
| pal-TLELDRLMASLS [B23p TGFB1I1-LD, palmitylated TGFB1I1 LD peptide] |  |  |  |  |  |  |  |  |  |  | 2 | 3 | 73 | 70 |  |
| pal-WEQLLTTIARTINEVENQI [B3p ACTN1-VBS] |  |  |  |  |  |  |  |  |  |  | 2 | 1 | 76 | 73 |  |
| tat-AGAKLRKVSKQE-(NH2) [tat-VASP, tat peptide from VASP] |  |  | 74 | 75 | 71 | 76 | 3 | 3 | 3 | 3 |  |  |  |  |  |
